Measurements taken from patent publication US8192962B2, “Processes for detecting toxic substances” (Daikin Industries, Ltd., priority 2001, dated 2012).

System: Transport facilitation protein genes
Assay: DNA chip mRNA expression in yeast, transport facilitation protein genes (Table 5)
Format: cell-based, Saccharomyces cerevisiae S288C
How it was run: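 Expression change after 2 h toxicant exposure (growth-inhibiting, sub-lethal) of log-phase S. cerevisiae S288C at 25° C. Oligo-dT-purified mRNA was labeled with Cy3-dUTP or Cy5-dUTP and hybridized >12 h at 65° C. to a genome-wide chip; ratio of scanned fluorescence to control.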

Na2As [(1)]
The level of expressed mRNA in the presence of chemical substance/The level of expressed mRNA in the absence of chemical substance (yeast gene YGR224W): 0.9 | The level of expressed mRNA in the presence of chemical substance/The level of expressed mRNA in the absence of chemical substance (yeast gene YGR260W): 0.6 | The level of expressed mRNA in the presence of chemical substance/The level of expressed mRNA in the absence of chemical substance (yeast gene YGR281W): 1.2 | The level of expressed mRNA in the presence of chemical substance/The level of expressed mRNA in the absence of chemical substance (yeast gene YHL035C): 0.7 | The level of expressed mRNA in the presence of chemical substance/The level of expressed mRNA in the absence of chemical substance (yeast gene YHL040C): 1.6 | The level of expressed mRNA in the presence of chemical substance/The level of expressed mRNA in the absence of chemical substance (yeast gene YHL047C): 0.6 | The level of expressed mRNA in the presence of chemical substance/The level of expressed mRNA in the absence of chemical substance (yeast gene YHR026W): 0.9 | The level of expressed mRNA in the presence of chemical substance/The level of expressed mRNA in the absence of chemical substance (yeast gene YHR092C): 2.3 | The level of expressed mRNA in the presence of chemical substance/The level of expressed mRNA in the absence of chemical substance (yeast gene YHR094C): 0.7 | The level of expressed mRNA in the presence of chemical substance/The level of expressed mRNA in the absence of chemical substance (yeast gene YHR175W): 0.8 | The level of expressed mRNA in the presence of chemical substance/The level of expressed mRNA in the absence of chemical substance (yeast gene YIL006W): 1.0 | The level of expressed mRNA in the presence of chemical substance/The level of expressed mRNA in the absence of chemical substance (yeast gene YIL022W): 0.8 | The level of expressed mRNA in the presence of chemical substance/The level of expressed mRNA in the absence of chemical substance (yeast gene YIL056W): 1.1 | The level of expressed mRNA in the presence of chemical substance/The level of expressed mRNA in the absence of chemical substance (yeast gene YIL088C): 0.9 | The level of expressed mRNA in the presence of chemical substance/The level of expressed mRNA in the absence of chemical substance (yeast gene YJL034W): 0.7 | The level of expressed mRNA in the presence of chemical substance/The level of expressed mRNA in the absence of chemical substance (yeast gene YJL212C): 0.8 | The level of expressed mRNA in the presence of chemical substance/The level of expressed mRNA in the absence of chemical substance (yeast gene YJL219W): 1.2 | The level of expressed mRNA in the presence of chemical substance/The level of expressed mRNA in the absence of chemical substance (yeast gene YJR077C): 1.1 | The level of expressed mRNA in the presence of chemical substance/The level of expressed mRNA in the absence of chemical substance (yeast gene YJR106W): 0.9 | The level of expressed mRNA in the presence of chemical substance/The level of expressed mRNA in the absence of chemical substance (yeast gene YJR121W): 0.9 | The level of expressed mRNA in the presence of chemical substance/The level of expressed mRNA in the absence of chemical substance (yeast gene YKL016C): 1.5 | The level of expressed mRNA in the presence of chemical substance/The level of expressed mRNA in the absence of chemical substance (yeast gene YKL146W): 0.8 | The level of expressed mRNA in the presence of chemical substance/The level of expressed mRNA in the absence of chemical substance (yeast gene YKR039W): 1.4 | The level of expressed mRNA in the presence of chemical substance/The level of expressed mRNA in the absence of chemical substance (yeast gene YKR067W): 0.8 | The level of expressed mRNA in the presence of chemical substance/The level of expressed mRNA in the absence of chemical substance (yeast gene YLL028W): 0.6 | The level of expressed mRNA in the presence of chemical substance/The level of expressed mRNA in the absence of chemical substance (yeast gene YLR081W): 1.3 | The level of expressed mRNA in the presence of chemical substance/The level of expressed mRNA in the absence of chemical substance (yeast gene YLR295C): 1.4 | The level of expressed mRNA in the presence of chemical substance/The level of expressed mRNA in the absence of chemical substance (yeast gene YLR348C): 1.1 | The level of expressed mRNA in the presence of chemical substance/The level of expressed mRNA in the absence of chemical substance (yeast gene YLR378C): 0.7 | The level of expressed mRNA in the presence of chemical substance/The level of expressed mRNA in the absence of chemical substance (yeast gene YMR011W): 1.3 | The level of expressed mRNA in the presence of chemical substance/The level of expressed mRNA in the absence of chemical substance (yeast gene YMR162C): 0.8 | The level of expressed mRNA in the presence of chemical substance/The level of expressed mRNA in the absence of chemical substance (yeast gene YMR203W): 0.8 | The level of expressed mRNA in the presence of chemical substance/The level of expressed mRNA in the absence of chemical substance (yeast gene YNL055C): 1.1 | The level of expressed mRNA in the presence of chemical substance/The level of expressed mRNA in the absence of chemical substance (yeast gene YNR072W): 1.1 | The level of expressed mRNA in the presence of chemical substance/The level of expressed mRNA in the absence of chemical substance (yeast gene YOL119C): 2.6 | The level of expressed mRNA in the presence of chemical substance/The level of expressed mRNA in the absence of chemical substance (yeast gene YOL156W): 1.1 | The level of expressed mRNA in the presence of chemical substance/The level of expressed mRNA in the absence of chemical substance (yeast gene YOL163W): 1.5 | The level of expressed mRNA in the presence of chemical substance/The level of expressed mRNA in the absence of chemical substance (yeast gene YOR035C): 1.2 | The level of expressed mRNA in the presence of chemical substance/The level of expressed mRNA in the absence of chemical substance (yeast gene YOR130C): 0.8 | The level of expressed mRNA in the presence of chemical substance/The level of expressed mRNA in the absence of chemical substance (yeast gene YOR153W): 1.6 | The level of expressed mRNA in the presence of chemical substance/The level of expressed mRNA in the absence of chemical substance (yeast gene YOR273C): 0.7 | The level of expressed mRNA in the presence of chemical substance/The level of expressed mRNA in the absence of chemical substance (yeast gene YOR316C): 0.7 | The level of expressed mRNA in the presence of chemical substance/The level of expressed mRNA in the absence of chemical substance (yeast gene YOR328W): 1.0 | The level of expressed mRNA in the presence of chemical substance/The level of expressed mRNA in the absence of chemical substance (yeast gene YOR332W): 1.1 | The level of expressed mRNA in the presence of chemical substance/The level of expressed mRNA in the absence of chemical substance (yeast gene YOR348C): 1.1 | The level of expressed mRNA in the presence of chemical substance/The level of expressed mRNA in the absence of chemical substance (yeast gene YPL036W): 0.5 | The level of expressed mRNA in the presence of chemical substance/The level of expressed mRNA in the absence of chemical substance (yeast gene YPL134C): 1.5 | The level of expressed mRNA in the presence of chemical substance/The level of expressed mRNA in the absence of chemical substance (yeast gene YPL271W): 1.2 | The level of expressed mRNA in the presence of chemical substance/The level of expressed mRNA in the absence of chemical substance (yeast gene YPR192W): 0.9 | The level of expressed mRNA in the presence of chemical substance/The level of expressed mRNA in the absence of chemical substance (yeast gene YPR194C): 2.2
